# Tested on: participants with ET
# Test: Phase 2 trial: treatment-emergent adverse events (TEAEs)
# Format: in vivo
# Excerpt: Part A of the clinical trial was open-label and assessed the safety and tolerability of the study drug, as well as the overall magnitude and pattern of change in ET severity.
# Part B of the clinical trial consisted of both an open-label titration phase and a randomized, double-blind, placebo-controlled withdrawal phase. Part B assessed the safety and tolerability of the study drug, as well as the overall magnitude and pattern of change in ET severity and the duration of that effect. […] In the randomized, double-blind, placebo-controlled withdrawal phase, participants were either maintained on their final open-label dose or switched to placebo for an additional 14 days (Days 43 to 56).
# Key safety measures included clinical laboratory evaluations, 12-lead ECG, C-SSRS, and vital signs. Key efficacy assessments included the TETRAS Performance subscale, TETRAS Upper Limb using accelerometry, CGI, and PGI-C. Blood samples were obtained for the determination of study drug plasma concentrations using a validated bioanalytical method and may also be used for method development and/or metabolite characterization.
# On Day 1, participants received a 20 mg dose of study drug on an empty stomach (at least 1 hour before breakfast). Participants remained in a clinical setting under medical observation for approximately 6 hours. TETRAS Performance assessments were performed before dosing and 6 hours (±2) post-dose. For dosing on Day 2 through Day 41, participants were instructed to dose QAM at least 1 hour before breakfast at home. Participants continued taking study drug 20 mg QAM at home through Day 3. […] On Day 4, participants escalated to 40 mg QAM through Day 7, when they returned to the clinic for safety assessments and efficacy testing. On Day 8, participants escalated to 60 mg QAM through Day 14. […] On Day 15, participants escalated to 80 mg QAM through Day 21, when they returned to the clinic for safety assessments and efficacy testing. On Day 22, participants escalated to 100 mg QAM through Day 28. […] On Day 29, participants escalated to 120 mg QAM through Day 42, when they returned to the clinic for safety assessments and efficacy testing. The dose on Day 42 was taken in the clinic. On Day 35, participants received a telephone call from site staff to inquire about AEs and concomitant medications. On Day 41, participants completed a TETRAS Performance Upper Limb assessment via a telehealth visit. […] Participants could only change to a lower dose level once, and no dose changes were allowed to occur after Day 36.
# In both phases, key safety measures included clinical laboratory evaluations, 12-lead ECG, C-SSRS, and vital signs. Key efficacy assessments included the TETRAS Performance subscale, TETRAS Upper Limb using accelerometry, CGI, PGI-C, TETRAS ADL Subscale, QUEST, BDI-II, and BAI. Blood samples were obtained for the determination of study drug and metabolite plasma concentrations.
# [1] = Part A, Overall, N = 7, listed as study drug
# [2] = Part B - RWD, study drug group, N = 6
smiles,measurement,setting,value
CC(C)(C)NC(=O)CN1CCC(CNC(=O)c2cc(F)cc(Cl)c2)CC1.Cl [Study drug],Drug-related TEAE dizziness,Part A,3 participants
same,participants experiencing TEAEs considered related to study drug,Part A,57.1%
same,participants who experienced at least 1 TEAE,Part A,85.7%
same,Any TEAE,"Part A (overall), N = 7",6 (85.7) n (%)
same,Any TEAE leading to study drug withdrawal,"Part A (overall), N = 7",1 (14.3) n (%)
same,Any TEAE related to disease under study,"Part A (overall), N = 7",1 (14.3) n (%)
same,Any TEAE related to study drug,"Part A (overall), N = 7",4 (57.1) n (%)
same,Any TEAE related to study procedure,"Part A (overall), N = 7",0 n (%)
same,Any fatal SAEs,"Part A (overall), N = 7",0 n (%)
same,Any serious adverse events,"Part A (overall), N = 7",0 n (%)
same,TEAE Mild,"Part A (overall), N = 7",6 (85.7) n (%)
same,TEAE Moderate,"Part A (overall), N = 7",1 (14.3) n (%)
same,TEAE Severe,"Part A (overall), N = 7",0 n (%)
same,participants who experienced AEs leading to study drug withdrawal,Part A and open-label titration phase of Part B together,7 participants
same,Any TEAE,"Part A, 20 mg, N = 7",6 (85.7) n (%)
same,TEAE PT Dizziness,"Part A, 20 mg, N = 7",4 (57.1) n (%)
same,TEAE PT Headache,"Part A, 20 mg, N = 7",3 (42.9) n (%)
same,TEAE SOC Nervous System Disorders,"Part A, 20 mg, N = 7",6 (85.7) n (%)
same,TEAE SOC Psychiatric Disorders,"Part A, 20 mg, N = 7",2 (28.6) n (%)
same,Any TEAE,"Part A, 40 mg, N = 6",2 (33.3) n (%)
same,TEAE PT Dizziness,"Part A, 40 mg, N = 6",0 n (%)
same,TEAE PT Headache,"Part A, 40 mg, N = 6",1 (16.7) n (%)
same,TEAE SOC Nervous System Disorders,"Part A, 40 mg, N = 6",1 (16.7) n (%)
same,TEAE SOC Psychiatric Disorders,"Part A, 40 mg, N = 6",0 n (%)
same,Any TEAE,"Part A, Overall, N = 7",6 (85.7) n (%)
same,TEAE PT Dizziness,"Part A, Overall, N = 7",4 (57.1) n (%)
same,TEAE PT Headache,"Part A, Overall, N = 7",3 (42.9) n (%)
same,TEAE SOC Nervous System Disorders,"Part A, Overall, N = 7",6 (85.6) n (%)
same,TEAE SOC Psychiatric Disorders,"Part A, Overall, N = 7",2 (28.6) n (%)
same,Any TEAE leading to study drug withdrawal,[1],1 n (%)
same,TEAE PT Dizziness,[1],4 n (%)
same,TEAE PT Headache,[1],3 n (%)
same,Any TEAE,"Part B - OLT, N = 17",15 n (%)
same,Any TEAE leading to study drug withdrawal,"Part B - OLT, N = 17",6 n (%)
same,Any TEAE related to disease under study,"Part B - OLT, N = 17",1 n (%)
same,Any TEAE related to study drug,"Part B - OLT, N = 17",12 n (%)
same,Any TEAE related to study procedure,"Part B - OLT, N = 17",0 n (%)
same,Any fatal SAEs,"Part B - OLT, N = 17",0 n (%)
same,Any serious adverse events,"Part B - OLT, N = 17",1 n (%)
same,TEAE Mild,"Part B - OLT, N = 17",13 n (%)
same,TEAE Moderate,"Part B - OLT, N = 17",7 n (%)
same,TEAE Severe,"Part B - OLT, N = 17",0 n (%)
same,Any TEAE,[2],1 (16.7) n (%)
same,Any TEAE leading to study drug withdrawal,[2],0 n (%)
same,Any TEAE related to disease under study,[2],0 n (%)
same,Any TEAE related to study drug,[2],0 n (%)
same,Any TEAE related to study procedure,[2],0 n (%)
same,Any fatal SAEs,[2],0 n (%)
same,Any serious adverse events,[2],0 n (%)
same,TEAE Mild,[2],1 (16.7) n (%)
same,TEAE Moderate,[2],1 (16.7) n (%)
same,TEAE Severe,[2],0 n (%)
same,Any TEAE,"Part B - RWD, study drug group, N = 6, listed as study drug",1 n (%)
same,Any TEAE,"Part B, 20 mg, N = 17",10 n (%)
same,PT Cognitive disorder,"Part B, 20 mg, N = 17",2 n (%)
same,PT Constipation,"Part B, 20 mg, N = 17",1 n (%)
same,PT Dizziness,"Part B, 20 mg, N = 17",4 n (%)
same,PT Fatigue,"Part B, 20 mg, N = 17",2 n (%)
same,PT Insomnia,"Part B, 20 mg, N = 17",1 n (%)
same,SOC Gastrointestinal Disorders,"Part B, 20 mg, N = 17",3 n (%)
same,SOC General Disorders and Administration Site Conditions,"Part B, 20 mg, N = 17",2 n (%)
same,SOC Musculoskeletal and Connective Tissue Disorders,"Part B, 20 mg, N = 17",1 n (%)
same,SOC Nervous System Disorders,"Part B, 20 mg, N = 17",8 n (%)
same,SOC Psychiatric Disorders,"Part B, 20 mg, N = 17",1 n (%)
same,SOC Vascular Disorders,"Part B, 20 mg, N = 17",0 n (%)
same,Any TEAE,"Part B, 40 mg, N = 15",8 n (%)
same,PT Cognitive disorder,"Part B, 40 mg, N = 15",1 n (%)
same,PT Constipation,"Part B, 40 mg, N = 15",3 n (%)
same,PT Dizziness,"Part B, 40 mg, N = 15",1 n (%)
same,PT Fatigue,"Part B, 40 mg, N = 15",1 n (%)
same,PT Insomnia,"Part B, 40 mg, N = 15",2 n (%)
same,SOC Gastrointestinal Disorders,"Part B, 40 mg, N = 15",3 n (%)
same,SOC General Disorders and Administration Site Conditions,"Part B, 40 mg, N = 15",2 n (%)
same,SOC Musculoskeletal and Connective Tissue Disorders,"Part B, 40 mg, N = 15",0 n (%)

# Source: US20250170114A1, “METHODS OF TREATMENT USING T-TYPE CALCIUM CHANNEL MODULATORS” (Praxis Precision Medicines, Inc., priority 2022, published 2025)
